{
  "source": "patent US20150190407A1",
  "about": "“METHODS FOR TREATMENT OF POSTOPERATIVE INFLAMMATION WITH REDUCED INTRAOCULAR PRESSURE” (Insite Vision Incorporated, priority 2014, published 2015)",
  "key": {"[1]": {"conditions": "cited from earlier work"}, "[2]": {"conditions": "after 8 days of treatment for inflammation following ocular surgery; cited from earlier work"}, "[3]": {"assay": "Release from the vehicle in the rabbit eye, measured in aqueous humor", "assay_type": "in vivo", "conditions": "in the ophthalmically acceptable vehicle", "protocol": "The viscous gels that result upon administration of the aqueous suspensions of the present disclosure to the eye have residence times in the eye ranging from about 2 to about 12 hours, e.g., from about 3 to about 6 hours. The active ingredients contained in these ophthalmically acceptable vehicles are released from the gels at rates that depend on such factors as the active ingredient itself and its physical form, the extent of drug loading and the pH of the system, as well as on any drug delivery adjuvants, such as ion exchange resins compatible with the ocular surface, which can also be present."}},
  "note": "Where two headings read alike, the source gives them in different places.",
  "data": [
    {"smiles": "C[C@@H]1C[C@H]2[C@@H]3CCC4=CC(=O)C=C[C@]4(C)[C@@]3(F)[C@@H](O)C[C@]2(C)[C@@]1(O)C(=O)COP(=O)(O)O", "note": "[dexamethasone phosphate]", "values": [
      {"measurement": "increase of intraocular pressure", "setting": "[1]; after one week", "result": "1-2 mmHg"},
      {"measurement": "increase of intraocular pressure", "setting": "[1]; after six weeks", "result": "5-6 mmHg"},
      {"measurement": "increase of intraocular pressure", "setting": "[1]; after two weeks", "result": "3-4 mmHg"},
      {"measurement": "median intraocular pressure vs placebo (saline 0.9%)", "setting": "[2]", "result": "significantly higher"}
    ]},
    {"smiles": "C[C@@H]1C[C@H]2[C@@H]3CCC4=CC(=O)C=C[C@]4(C)[C@@]3(F)[C@@H](O)C[C@]2(C)[C@@]1(O)C(=O)CO", "note": "[dexamethasone]", "values": [
      {"measurement": "rise in IOP (published data)", "setting": "[1]; administered without the benefit of a sustained release vehicle", "result": "3-4 mmHg"}
    ]},
    {"smiles": "CC(=O)[C@@]1(O)CC[C@H]2[C@@H]3C[C@H](C)C4=CC(=O)C=C[C@]4(C)[C@@]3(F)[C@@H](O)C[C@@]21C", "note": "[fluorometholone]", "values": [
      {"measurement": "release rates in the rabbit eye, as measured by fluorometholone contained in the aqueous humor", "setting": "[3]", "result": "in excess of four hours"}
    ]}
  ]
}
